Source: patent US11780840B2 (Incyte Corporation, priority 2020, dated 2023)

What was measured:
[1] = biological target: T1, pseudo-kinase domain (JH2, amino-acids 536-812 with 3 surface mutations W659A, W777A, F794H) of human Wild Type JAK2 (Homo sapiens, UniProt O60674, F794H/W659A/W777A); experiment: JAK2 LanthaScreen JH2-WT Binding Assay; details: JAK2 JH2-WT (0.145 nM), 50 nM Fluorescent JAK2-JH2 Tracer, 1 hour at 25° C.; read-out: JH2 BIND WT
T1 construct: pseudo-kinase domain (JH2, amino-acids 536-812 with 3 surface mutations W659A, W777A, F794H); His (C); Avi (biotinylated) (C); purchased BPS Bioscience 79463; host or cells: baculovirus expression system
In short: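 IC50 values derive from four-parameter fits of LanthaScreen signal, measuring displacement of 50 nM fluorescent tracer from 0.145 nM biotinylated, baculovirus-expressed JH2 (536-812) detected by 0.25 nM streptavidin-Tb. Incubation lasts 1 hour at 25° C, pH 7.5.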

[2] = biological target: T2, pseudo-kinase domain (JH2, amino-acids 536-812 with 3 surface mutations W659A, W777A, F794H) of human V617F mutant JAK2 (Homo sapiens, UniProt O60674, F794H/V617F/W659A/W777A); experiment: JAK2 LanthaScreen JH2-V617F Binding Assay; details: JAK2 JH2-V617F (0.26 nM), 50 nM Fluorescent JAK2-JH2 Tracer, 1 hour at 25° C.; read-out: JH2 BIND V617F
T2 construct: pseudo-kinase domain (JH2, amino-acids 536-812 with 3 surface mutations W659A, W777A, F794H); His (C); Avi (biotinylated) (C); purchased BPS Bioscience 79498; host or cells: baculovirus expression system
In short: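 IC50 values came from four-parameter dose-response fits of LanthaScreen signal, read after compounds sat 1 hour at 25° C with 0.26 nM baculovirus-expressed biotinylated protein, 50 nM fluorescent tracer and 0.25 nM streptavidin-Tb cryptate. Non-specific binding was set with 2 mM ATP.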

[3] = biological target: T3, catalytic domain (JH1, amino acids 826-1132) of human JAK2 (Homo sapiens, UniProt O60674); experiment: JAK2 LanthaScreen JH1 Binding Assay; details: JAK2 JH1 (1.5 nM), 50 nM fluorescent JAK2-JH1 tracer, 2 hours at 25° C.; read-out: JH1 BIND
T3 construct: catalytic domain (JH1, amino acids 826-1132) of human JAK2; FLAG (N); purchased Carna Biosciences 08-445-20N; host or cells: baculovirus expression system
In short: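 FLAG-tagged, biotinylated JAK2 JH1 (aa 826-1132, baculovirus-expressed; 1.5 nM) incubated 2 h at 25° C with compounds, 50 nM fluorescent tracer and 0.5 nM Streptavidin-Tb in Tris pH 7.5 buffer with MgCl2, Brij-35, BSA, EGTA, glycerol, DTT. Nonspecific binding defined with 2 mM ATP; TR-FRET IC50 from four-parameter fit.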

T2 sequence (O60674 536-812 V617F/W659A/W777A/F794H): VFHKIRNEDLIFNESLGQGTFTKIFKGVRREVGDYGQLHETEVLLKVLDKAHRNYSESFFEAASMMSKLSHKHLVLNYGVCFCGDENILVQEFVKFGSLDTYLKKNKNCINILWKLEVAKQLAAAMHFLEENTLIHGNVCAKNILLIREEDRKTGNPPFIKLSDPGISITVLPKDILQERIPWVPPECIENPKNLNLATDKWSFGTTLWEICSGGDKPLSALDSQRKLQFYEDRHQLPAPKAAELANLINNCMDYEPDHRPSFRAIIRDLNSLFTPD
T3 sequence (O60674 826-1132): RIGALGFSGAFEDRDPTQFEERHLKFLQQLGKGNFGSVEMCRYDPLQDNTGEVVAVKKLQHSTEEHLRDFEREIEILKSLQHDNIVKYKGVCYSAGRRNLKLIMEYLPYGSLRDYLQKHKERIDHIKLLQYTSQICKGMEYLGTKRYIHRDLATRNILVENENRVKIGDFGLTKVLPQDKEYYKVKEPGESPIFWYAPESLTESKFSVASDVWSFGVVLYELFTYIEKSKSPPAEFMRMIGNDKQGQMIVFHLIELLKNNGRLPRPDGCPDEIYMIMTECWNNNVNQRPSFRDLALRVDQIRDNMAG
T1 sequence (O60674 536-812 W659A/W777A/F794H): as the sequence (O60674 536-812 V617F/W659A/W777A/F794H) above, with F82V counted along it

Row | SMILES | IC50 [1] [nM] | IC50 [2] [nM] | IC50 [3] [nM]
1 | CC(C)n1c(=O)n(C)c2cnc3[nH]c(-c4cnn(CC(C)(C)O)c4)c(-c4cc5c(s4)CCN(S(C)(=O)=O)C5)c3c21 [Example 83, 7-(1-(2-Hydroxy-2-methylpropyl)-1H-pyrazol-4-yl)-1-isopropyl-3-methyl-8-(5-(methylsulfonyl)-4,5,6,7-tetrahydrothieno[3,2-c]pyridin-2-yl)-3,6-dihydroimidazo[4,5-d]pyrrolo[2,3-b]pyridin-2(1H)-one] | ≤ 10 | 10 to 100 | > 1000
2 | Cc1cn2cc(-c3c(-c4cnn(CC(C)(C)O)c4)[nH]c4ncc5c(c34)n(C(C)C)c(=O)n5C)cc2cn1 [Example 84, 7-(1-(2-Hydroxy-2-methylpropyl)-1H-pyrazol-4-yl)-1-isopropyl-3-methyl-8-(3-methylpyrrolo[1,2-a]pyrazin-7-yl)-3,6-dihydroimidazo[4,5-d]pyrrolo[2,3-b]pyridin-2(1H)-one] | ≤ 10 | ≤ 10 | > 1000
3 | CC(C)n1c(=O)n(C)c2cnc3[nH]c(-c4cnn(CC(C)(C)O)c4)c(-c4ccn5cncc5c4)c3c21 [Example 85, 7-(1-(2-Hydroxy-2-methylpropyl)-1H-pyrazol-4-yl)-8-(imidazo[1,5-a]pyridin-7-yl)-1-isopropyl-3-methyl-3,6-dihydroimidazo[4,5-d]pyrrolo[2,3-b]pyridin-2(1H)-one] | ≤ 10 | 10 to 100 | > 1000
4 | CC(C)n1c(=O)n(C)c2cnc3[nH]c(-c4cnn(CC(C)(C)O)c4)c(-c4ccc5c(c4)CCC5O)c3c21 (stereo not drawn) [Example 86, 8-(1-Hydroxy-2,3-dihydro-1H-inden-5-yl)-7-(1-(2-hydroxy-2-methylpropyl)-1H-pyrazol-4-yl)-1-isopropyl-3-methyl-3,6-dihydroimidazo[4,5-d]pyrrolo[2,3-b]pyridin-2(1H)-one] | ≤ 10 | 10 to 100 | > 1000
5 | CC(C)n1c(=O)n(C)c2cnc3[nH]c(-c4cnn(CC(C)(C)O)c4)c(-c4ccc(COC5CCOCC5)cc4)c3c21 [Example 87, 7-(1-(2-Hydroxy-2-methylpropyl)-1H-pyrazol-4-yl)-1-isopropyl-3-methyl-8-(4-(((tetrahydro-2H-pyran-4-yl)oxy)methyl)phenyl)-3,6-dihydroimidazo[4,5-d]pyrrolo[2,3-b]pyridin-2(1H)-one] | ≤ 10 | ≤ 10 | > 1000
6 | CC(C)n1c(=O)n(C)c2cnc3[nH]c(-c4cnn(CC(C)(C)O)c4)c(C45CCNCC4C5)c3c21 (stereo not drawn) [Example 88, 8-(3-Azabicyclo[4.1.0]heptan-6-yl)-7-(1-(2-hydroxy-2-methylpropyl)-1H-pyrazol-4-yl)-1-isopropyl-3-methyl-3,6-dihydroimidazo[4,5-d]pyrrolo[2,3-b]pyridin-2(1H)-one] | ≤ 10 | 10 to 100 | > 1000
7 | CN(C)C(=O)c1ccc(-c2[nH]c3ncc4c(c3c2-c2ccc3c(cnn3C)c2)n(C2CCCC2)c(=O)n4C)cc1 [Example 89, 4-(1-Cyclopentyl-3-methyl-8-(1-methyl-1H-indazol-5-yl)-2-oxo-1,2,3,6-tetrahydroimidazo [4,5-d]pyrrolo[2,3-b]pyridin-7-yl)-N,N-dimethylbenzamide] | ≤ 10 | ≤ 10 | 500 to 1000
8 | Cn1ncc2cc(-c3c(-c4cnn5cccnc45)[nH]c4ncc5c(c34)n(C3CCOCC3)c(=O)n5C)ccc21 [Example 90, 3-Methyl-8-(1-methyl-1H-indazol-5-yl)-7-(pyrazolo[1,5-a]pyrimidin-3-yl)-1-(tetrahydro-2H-pyran-4-yl)-3,6-dihydroimidazo[4,5-d]pyrrolo[2,3-b]pyridin-2(1H)-one] | ≤ 10 | ≤ 10 | > 1000
9 | COc1nn(C)cc1-c1[nH]c2ncc3c(c2c1-c1ccc2c(cnn2C)c1)n(C1CCOCC1)c(=O)n3C [Example 91, 7-(3-methoxy-1-methyl-1H-pyrazol-4-yl)-3-methyl-8-(1-methyl-1H-indazol-5-yl)-1-(tetrahydro-2H-pyran-4-yl)-3,6-dihydroimidazo[4,5-d]pyrrolo[2,3-b]pyridin-2(1H)-one] | ≤ 10 | ≤ 10 | > 1000
10 | Cn1ncc2cc(-c3c(-c4cnn5c4CCC5)[nH]c4ncc5c(c34)n(C3CCOCC3)c(=O)n5C)ccc21 [Example 92, 7-(5,6-Dihydro-4H-pyrrolo[1,2-b]pyrazol-3-yl)-3-methyl-8-(1-methyl-1H-indazol-5-yl)-1-(tetrahydro-2H-pyran-4-yl)-3,6-dihydroimidazo[4,5-d]pyrrolo[2,3-b]pyridin-2(1H)-one] | ≤ 10 | ≤ 10 | > 1000
11 | Cn1ncc2cc(-c3c(C(O)C4CC4)[nH]c4ncc5c(c34)n(C3CCOCC3)c(=O)n5C)ccc21 (stereo not drawn) [Example 95, 7-(Cyclopropyl(hydroxy)methyl)-3-methyl-8-(1-methyl-1H-indazol-5-yl)-1-(tetrahydro-2H-pyran-4-yl)-3,6-dihydroimidazo[4,5-d]pyrrolo[2,3-b]pyridin-2(1H)-one] | ≤ 10 | 10 to 100 | > 1000
12 | CC(C)n1c(=O)n(C)c2cnc3[nH]c(Cc4ccc(C#N)cc4)c(-c4ccc5c(cnn5C)c4)c3c21 [Example 96, 4-((1-Isopropyl-3-methyl-8-(1-methyl-1H-indazol-5-yl)-2-oxo-1,2,3,6-tetrahydroimidazo [4,5-d]pyrrolo[2,3-b]pyridin-7-yl)methyl) benzonitrile] | > 1000 | > 1000 | > 1000
13 | CCc1[nH]c2ncc3c(c2c1-c1ccc2c(cnn2C)c1)n(C1CCCC1)c(=O)n3C [Example 97, 1-Cyclopentyl-7-ethyl-3-methyl-8-(1-methyl-1H-indazol-5-yl)-3,6-dihydroimidazo[4,5-d]pyrrolo[2,3-b]pyridin-2(1H)-one] | 10 to 100 | 100 to 500 | > 1000
14 | Cn1ncc2cc(-c3c(C(=O)NC4CC4)[nH]c4ncc5c(c34)n(C3CCCC3)c(=O)n5C)ccc21 [Example 98, 1-Cyclopentyl-N-cyclopropyl-3-methyl-8-(1-methyl-1H-indazol-5-yl)-2-oxo-1,2,3,6-tetrahydroimidazo [4,5-d]pyrrolo[2,3-b]pyridine-7-carboxamide] | 10 to 100 | 10 to 100 | > 1000
15 | Cn1ncc2cc(-c3c(S(C)(=O)=O)[nH]c4ncc5c(c34)n(C3CCCC3)c(=O)n5C)ccc21 [Example 99, 1-Cyclopentyl-3-methyl-8-(1-methyl-1H-indazol-5-yl)-7-(methylsulfonyl)-3,6-dihydroimidazo [4,5-d]pyrrolo[2,3-b] pyridin-2(1H)-one] | 500 to 1000 | 500 to 1000 | > 1000
16 | CC(C)n1c(=O)n(C)c2cnc3[nH]c(-c4cnn(C)c4)c(C#Cc4ccccc4)c3c21 [Example 100, 1-Isopropyl-3-methyl-7-(1-methyl-1H-pyrazol-4-yl)-8-(phenylethynyl)-3,6-dihydroimidazo[4,5-d]pyrrolo[2,3-b]pyridin-2(1H)-one] | 100 to 500 | 100 to 500 | 500 to 1000
17 | Cn1cc(-c2[nH]c3ncc4c(c3c2-c2ccc3c(cnn3C)c2)n([C@H]2C[C@@H](CC#N)C2)c(=O)n4C)cn1 [Example 101, 2-((1S,3S)-3-(3-Methyl-8-(1-methyl-1H-indazol-5-yl)-7-(1-methyl-1H-pyrazol-4-yl)-2-oxo-3,6-dihydroimidazo[4,5-d]pyrrolo[2,3-b]pyridin-1(2H)-yl)cyclobutyl)acetonitrile] | ≤ 10 | ≤ 10 | 100 to 500
18 | Cn1cc(-c2[nH]c3ncc4c(c3c2-c2ccc3c(cnn3C)c2)n([C@H]2CC[C@@H](CC#N)CC2)c(=O)n4C)cn1 [Example 102, 2-((1S,4S)-4-(3-Methyl-8-(1-methyl-1H-indazol-5-yl)-7-(1-methyl-1H-pyrazol-4-yl)-2-oxo-3,6-dihydroimidazo[4,5-d]pyrrolo[2,3-b]pyridin-1(2H)-yl)cyclohexyl)acetonitrile] | ≤ 10 | ≤ 10 | 10 to 100
